Data: a melting point compilation (Tetko et al.; mined from patent text by program, amines drawn as free bases though some values may be those of a salt)

| SMILES | melting point |
| --- | --- |
| CCOC(=O)c1ccc(OCCC2CCc3c(c(OC)c(OC)c(OC)c3OC)CC2)cc1 | 129 to 131 °C |
| O=C(O)CCCN1C(=O)C(c2ccccc2)SC1=S (stereo not given) | 138 to 139 °C |
| COc1cc2c(cc1OC)CN(CCCCc1ccc(NC(=O)c3cccc4c(=O)cc(-c5ccccc5)[nH]c34)cc1)CC2 | 204 °C |
| CCCCOc1nc(N)c2nc(OC)n(CCS(=O)(=O)c3cccc(CC(=O)OC)c3)c2n1 | 246 to 247 °C |
| O=Cc1cc(Oc2ccccc2)ccc1O | 54 to 55 °C |
| COc1nc2cc(Cl)c(Cl)c(-n3c(CO)nnc3-c3cccnc3)c2nc1OC | 209 to 210 °C |
| CC(=O)NC(CCCCCCCCCCCCO)(COC(C)=O)COC(C)=O | 75 to 76.5 °C |
| COC(=O)C#CC(=O)c1ccccc1C | 43 to 45 °C |
| CC1(C)C(=O)ON(Cc2ccc(Cl)cc2Cl)C1=O | 68 to 69.5 °C |
| Cc1nnc(-c2ccc(Cl)c([N+](=O)[O-])c2)[nH]1 | 168 °C |
| CCCCC[C@@H](CNC(=O)Nc1c(OCC)ncnc1N(C)C)c1cccc2c1OCO2 | 62 to 64 °C |
| C=Cc1cc(C(C)NC(=O)OC(C)(C)C)ccc1NS(=O)(=O)C=C (stereo not given) | 80 to 82 °C |
| O=c1nc(-c2cccc(S(=O)(=O)CCc3ccccc3)n2)sc2ccccc12 | 162 to 164 °C |
| COc1ccccc1Sc1ccc(C=O)c(Cl)c1Cl | 137 to 139 °C |
| COc1cc(OCC(=O)O)c(C)cc1SCc1cccc(-c2cccc(OC(F)(F)F)c2)c1 | 92 to 94 °C |
| Cn1cc(C(O)c2ccncc2)cc1C(=O)c1ccc(Cl)cc1 (stereo not given) | 145 to 146 °C |
| NC(=O)N1C(=O)C(=C(OC(=O)C=Cc2ccccc2)c2cccs2)c2cc(F)c(Cl)cc21 | 214 to 215 °C |
| Cc1cc(-c2nc3cccnn3c2-c2ccnc(NC(=O)c3cccc4ccccc34)c2)ccc1F | 252 to 253 °C |
| Oc1cccc(-c2ncc3ncc(Cl)cc3n2)c1 | 252 to 253 °C |
| C=CCOC(=O)COc1ccc(CO)cc1 | 33.5 to 34.5 °C |
| CC(C)COC(=O)C1(c2onc(-c3ccc(O)cc3)c2-c2ccccc2)CC1 | 109 to 110 °C |
| Cc1nnc(-c2ccc3ncc(-c4ccc(S(C)=O)cc4)n3c2)o1 (stereo not given) | 190 °C |

| SMILES | melting point |
| --- | --- |
| CCOC(=O)CCCCCCCCCCNC(=O)CN(CCN(CCN(CC(=O)O)CC(=O)O)CC(=O)O)CC(=O)O | 155 to 157 °C |
| CCOC(=O)c1c(Cl)c2cc(F)ccc2n(Cc2ccccc2)c1=O | 118 °C |
| O=c1[nH]c2c(O)cccc2c(=O)n1CCCN1CC=C(c2ccc(Cl)cc2)CC1 | 284 to 286 °C |
| CC(=O)NC1CCN(c2cccc(Cl)n2)CC1 | 153 to 155 °C |
| CC(C)n1nc(-c2sc(NC(=O)CN(C)CCc3ccccn3)nc2-c2ccccc2)ccc1=O | 94 to 96 °C |
| COc1cc2c(c(Cl)c1Cl)C(=O)C(C)C2 (stereo not given) | 129 °C |
| CC(C)(C)c1ccc(C=NOCc2ccc(CC(=O)O)cc2)cc1 | 93.3 to 96.2 °C |
| O=C(O)CCCc1nc2nc[nH]c2c2nc(-c3ccccc3)nn12 | 280 °C |
| COC(=O)c1ccc(/C=C(\C)c2ccc3c(c2)C(C)(C)CCN3C(C)=O)cc1 | 141 to 142 °C |
| Cc1nnc(F)c(-c2c(F)cc(F)cc2F)c1-c1ccc(Cl)cc1 | 114 to 115 °C |
| O=C(Cl)c1ccc(OC(=O)c2cccc(C(=O)Oc3ccc(C(=O)Cl)cc3)c2)cc1 | 204 °C |
| COC(=O)c1cccc(-c2nc(-c3ccc(OC)cc3)cs2)c1 | 108 to 109 °C |
| Cn1nc(-c2cccs2)c(N)c1N | 154 to 155 °C |
| Clc1cc2nc(Br)c(Br)nc2cc1Cl | 169 to 170 °C |
| COc1cccc(CCC(=O)CCCCCC(=O)O)c1 | 41 to 43 °C |
| CCOC(=O)C(C)n1ncc2ccc([N+](=O)[O-])cc21 (stereo not given) | 99.7 to 100 °C |
| CC(C)(C)OC(=O)N1CCn2c(C(=O)N[C@@H](Cc3ccccc3)[C@H](O)CNC3(c4cccc(C(F)(F)F)c4)CC3)cc(C(=O)O)c2C1 | 134 °C |
| CN1CC(C#N)C(=O)c2cc3cc(F)c(F)cc3nc21 (stereo not given) | 144 °C |
| CCCCOC(=O)c1cc([N+](=O)[O-])c(Oc2ccc(OCc3ccccc3)cc2)c(S(N)(=O)=O)c1 | 138 to 144 °C |
| CCOC(=O)c1cn(-c2cccc(Oc3ccc([N+](=O)[O-])cc3)c2)cn1 | 162 to 163 °C |
| CCCCOc1cc(C(=O)NCCCN2CCCCC2)cc(S(N)(=O)=O)c1Cc1ccccc1 | 138 °C |
| O=C1NC(=S)C(=Cc2cc(O)c(O)c([N+](=O)[O-])c2)O1 | 245 °C |

| SMILES | melting point |
| --- | --- |
| CC(C)(C)[Si](C)(C)OC1CCCc2cnc3cc(O)ccc3c21 (stereo not given) | 248 to 250 °C |
| CC(=O)OCC(C(OC(C)=O)c1cccc(F)c1)[N+](=O)[O-] (stereo not given) | 94 °C |
| C[C@H]1N[C@H](c2ccc(Br)cc2)[C@@H]2C(=O)N(Cc3ccccc3)C(=O)[C@@H]21 (racemic) | 170 to 172 °C |
| O=C(c1cn(C(=O)c2ccc(Cl)cc2)c2ccccc12)C1CSC(c2cccnc2)N1 (stereo not given) | 80 to 84 °C |
| COC(=O)C1=C(CF)NC(C)=C(C(=O)OC2CCCC2)C1c1cccc([N+](=O)[O-])c1C (stereo not given) | 167 to 168 °C |
| CNC1C(O)CC2C3CCC4CC(OC(C)=O)CCC4(C)C3CCC21C (stereo not given) | 197 to 199 °C |
| COCc1ncn2c1CN(C)C(=O)c1ccccc1-2 | 115 to 116 °C |
| CCC(O)c1c(C(C)C)nc(C(C)C)c(CO)c1-c1ccc(F)cc1 (stereo not given) | 173 to 175 °C |
| COC(=O)C(=CNc1ccc(F)c(F)c1OCC(C)OS(=O)(=O)c1ccc(C)cc1)C(=O)OC (stereo not given) | 89 to 90 °C |
| CC1(C)C(C=C2CCSC2=O)C1C(=O)OC(C#N)c1ccc(F)c(Oc2ccccc2)c1 (stereo not given) | 131 °C |
| CCCCCCNC(=O)c1ccccc1I | 104 to 105 °C |
| CCc1c(Br)c(C#N)nn1C | 72 to 74 °C |
| CCN(CC)Cc1nn2cc(-c3ccccc3)nc2s1 | 138 °C |
| CC(C)C(C)(C)C(O)(COc1ccc(Cl)cc1)Cn1cncn1 (stereo not given) | 59 to 60 °C |
| CN(c1cccc2cc(C(=O)NCC(C)(C=O)SCc3ccccc3)[nH]c12)S(=O)(=O)c1cccs1 (stereo not given) | 149 to 150 °C |
| Sc1ncc2c(n1)-c1ccc(Cl)cc1C(c1ccccc1Cl)=NC2 | 232 to 234 °C |
| CC(C)(C)C(=O)Nc1nc(O)c2c(C#C[Si](C)(C)C)c[nH]c2n1 | > 300 °C |
| N#CNc1nnc(-c2ccccc2Nc2cccc(C(F)(F)F)c2)o1 | > 230 °C |
| OC(CCc1cccnc1)CSc1ccc(C2CCCCC2)cc1 (stereo not given) | 49 °C |
| CN1C(=O)CN(C(=O)CN)C(c2ccccc2)c2cc(Cl)ccc21 (stereo not given) | 158 to 160 °C |
| CCC#COc1ccc(S(=O)(=O)NC(CSC)C(=O)NO)cc1 (stereo not given) | 128 to 130 °C |

More lines, now with the values ahead:

| melting point | SMILES |
| --- | --- |
| 320 to 322 °C | CC(C)(C)c1ccc2nc3c(c(O)c2c1)CCCC3 |
| 132 to 134 °C | CS(=O)(=O)c1c(C(N)=NO)nn(-c2c(Cl)cc(C(F)(F)F)cc2Cl)c1N |
| 103 to 104 °C | O=C(O)CCCCCCCn1nnc(-c2ccccc2)c1-c1ccccc1 |
| 41 to 42 °C | O=CCCc1nc(-c2ccc(Cl)cc2)co1 |
| 157 to 158 °C | Cc1ccc(S(=O)(=O)N(c2ccc(C#N)cc2C#N)C(C)C)cc1 |
| 212 to 213 °C | ClCC1(CCl)Cc2cccc3cccc1c23 |
| 183 to 186 °C | COc1ncc(CS(=O)(=O)CC(=O)O)cc1[N+](=O)[O-] |
| 146 °C | CCCCCC(C=Cc1ccc(C(=O)O)cc1)c1ccc2c(c1)C(C)(C)CCS2 (racemic) |
| 120 to 124 °C | CCC(O)(c1cccc(NS(=O)(=O)CC)c1)c1c[nH]cn1 (stereo not given) |
| 124 °C | Cc1ccc(C(=O)OCc2c3ccccc3cc3ccccc23)cc1 |
| 124 to 125 °C | CCc1c(Cl)nc(Cl)nc1N(C=O)c1cc(C)cc(C)c1 |
| 330 °C | CN1CCN(N=C2CC(c3ccc(C(F)(F)F)cc3)Cc3[nH]c4ccc(Cl)cc4c(=O)c32)CC1 (stereo not given) |
| 141 to 143 °C | N#Cc1ccc2[nH]c3c(c2c1)CC(NC(=O)OCc1ccccc1)CC3 (stereo not given) |
| 310 to 312 °C | Cc1cc2nc(Cl)cc(NCc3c(C)cccc3C)c2[nH]1 |
| 127 to 129 °C | CC(C)(C)OC(=O)NC1CCc2ccccc2C(F)C1=O (stereo not given) |
| 135 to 138 °C | Cn1nc(-c2c(F)cc(Cl)c(=S)n2Cc2ccccc2)c(Cl)c1OC(F)F |
| 104 to 106 °C | Cn1cc(C#N)c(-c2ccco2)n1 |
| 99 to 102 °C | CN(C(=O)c1ccc(-c2ccccc2)cc1)c1ccccc1 |

| melting point | SMILES |
| --- | --- |
| 210 to 212 °C | Fc1cccnc1N1CCN(Cc2nc3ccccc3[nH]2)CC1 |
| 56 °C | COc1cc(N)ccc1-c1ccccc1 |
| 97 to 100 °C | COC(=O)COc1c(C(=O)OC)n(-c2ccccc2)c2ccc(OC)cc12 |
| 168 °C | CC(C)(C)c1ccc(CC2CCN(C(=O)C(=O)Nc3ccc4[nH]c(=O)oc4c3)CC2)cc1 |
| 239 to 241 °C | COc1ccccc1-c1c(=O)[nH]c2cc(Cl)c(Cl)cc2[n+]1[O-] |
| 80 to 82 °C | O=C(Nc1ccc2[nH]ccc2c1)C(=O)N1CCC(Cc2ccc(F)cc2)CC1 |
| 58 °C | COC=C1CCC(c2ccc(C(=O)OC)cc2)CC1 (stereo not given) |
| 238 °C | COC(=O)CCCc1cc2cc(Cl)ccc2n1S(=O)(=O)c1ccc2nc(N)oc2c1 |
| 137 to 139 °C | N#Cc1ccc(CC2CCN(C(=O)c3ccc(Cl)cc3)CC2)cc1 |
| 172 °C | OC1CSC(Oc2cccc3ocnc23)C(O)C1O (stereo not given) |
| 93 to 94 °C | CCOP(=O)(CNC(CCCc1ccccc1)c1cc(C(C)(C)C)c(O)c(C(C)(C)C)c1)OCC (stereo not given) |
| 169 °C | O=c1n(-c2ccc(Cl)cc2)c(=O)n(SC(Cl)(Cl)Cl)n1SC(Cl)(Cl)Cl |
| 181 to 182 °C | CC(C)(C)C(NC(=O)c1ccc(-c2ccco2)cc1)NC(=NC#N)Nc1cccnc1 (stereo not given) |
| 60 to 62 °C | CCCCCCCCCCC/C=C\c1ccc(C=CC(=O)OC)cc1 |
| 94 to 95 °C | CC(C)(C)OC(=O)CCC1CC(O)C(=O)N1 (stereo not given) |
| 82 to 84 °C | CCCCCCCCCCCCCCCCCCOc1cc(OCCCCCCc2cccc(O)c2O)cc(C(=O)OC)c1 |
| 225 to 226 °C | CC(=O)N1CCC(CNCc2ccc(C=CC(=O)Nc3ccc(-c4ccc(Cl)cc4)cc3)cc2)CC1 |
